Source: the supplement of paper PMC10307832

Key:
Test in all cases: relative viability (nuclei count vs DMSO), 5 days (fraction); higher = more cells survive
[1] = compound: Nc1ccccc1NC(=O)c1ccc(CNC(=O)OCc2cccnc2)cc1 [Entinostat] + Cc1cc(Nc2cc(N3CCN(C)CC3)nc(Sc3ccc(NC(=O)C4CC4)cc3)n2)n[nH]1 [Tozasertib] (partner 0.1 µM)
Procedure, shortened: (§1)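 Values are medians from duplicate plates. Each reflects relative viability, defined as the nuclei count of treated wells over that of vehicle wells. Lung cancer cell lines in 1536-well plates were pin-tool dosed one day after seeding with one drug alone or with a fixed anchor-drug dose plus five library-drug doses (not always all listed) in √10 steps, then fixed, stained and imaged at 4× after 5 days.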

[2] = compound: CN1CCC(CNc2ccc3ncc(-c4cccc(OC(F)(F)F)c4)n3n2)CC1 [SGI-1776] + CS(=O)(=O)CCNCc1ccc(-c2ccc3ncnc(Nc4ccc(OCc5cccc(F)c5)c(Cl)c4)c3c2)o1 [Lapatinib] (partner 2 µM)
Procedure, shortened: as §1

[3] = compound: Nc1ccccc1NC(=O)c1ccc(CNC(=O)OCc2cccnc2)cc1 [Entinostat] + C[C@]1(O)C[C@@H](c2nc(-c3ccc4ccc(-c5ccccc5)nc4c3)c3c(N)nccn32)C1 [Linsitinib] (partner 1 µM)
Procedure, shortened: as §1

[4] = compound: C1COCCN1C2=NC(=NC3=C2OC4=C3C=CC=N4)C5=CC(=CC=C5)NC(=O)C6=CN=C(C=C6)N + C[C@@H](Oc1cc(-c2cnn(C3CCNCC3)c2)cnc1N)c1c(Cl)ccc(F)c1Cl [Crizotinib] (partner 1 µM)
Procedure, shortened: as §1

| Cell Line | relative viability ([1]; first compound 0.02 µM) | relative viability ([1]; first compound 0.06325 µM) | relative viability ([1]; first compound 0.2 µM) | relative viability ([1]; first compound 0.6325 µM) | relative viability ([1]; first compound 2 µM) | relative viability ([2]; first compound 0.08 µM) | relative viability ([2]; first compound 0.8 µM) | relative viability ([2]; first compound 2.53 µM) | relative viability ([2]; first compound 8 µM) | relative viability ([3]; first compound 0.02 µM) | relative viability ([3]; first compound 0.06325 µM) | relative viability ([3]; first compound 0.2 µM) | relative viability ([3]; first compound 0.6325 µM) | relative viability ([3]; first compound 2 µM) | relative viability ([4]; first compound 0.02 µM) | relative viability ([4]; first compound 0.06325 µM) | relative viability ([4]; first compound 0.2 µM) | relative viability ([4]; first compound 0.6325 µM) | relative viability ([4]; first compound 2 µM) |
| --- | --- | --- | --- | --- | --- | --- | --- | --- | --- | --- | --- | --- | --- | --- | --- | --- | --- | --- | --- |
| NCI-H1651 | 0.619 | 0.705 | 0.584 | 0.333 | 0.237 | 0.822 | 0.871 | 0.76 | 0.709 | 0.952 | 0.976 | 0.959 | 0.827 | 0.365 | 0.835 | 0.894 | 0.854 | 0.865 | 0.671 |
| NCI-H1666 | 0.562 | 0.535 | 0.471 | 0.405 | 0.346 | 0.645 | 0.765 | 0.581 | 0.35 | 0.874 | 0.783 | 0.476 | 0.498 | 0.313 | 0.743 | 1.08 | 0.82 | 1.03 | 0.619 |
| NCI-H1734 | 0.25 | 0.296 | 0.267 | 0.215 | 0.22 | 1.13 | 1.05 | 1.11 | 0.938 | 0.908 | 0.985 | 0.987 | 0.916 | 0.817 | 0.73 | 0.731 | 0.612 | 0.636 | 0.345 |
| NCI-H1755 | 0.603 | 0.505 | 0.464 | 0.361 | 0.357 | 0.995 | 1.09 | 0.967 | 0.788 | 0.984 | 0.988 | 0.866 | 0.625 | 0.412 | 0.969 | 0.978 | 0.811 | 0.773 | 0.34 |
| NCI-H1915 | 0.446 | 0.385 | 0.338 | 0.267 | 0.212 | 0.981 | 0.95 | 0.972 | 0.949 | 1.1 | 1.04 | 0.966 | 0.912 | 0.459 | 0.887 | 1 | 0.983 | 0.907 | 0.494 |
| NCI-H1944 | 0.224 | 0.215 | 0.204 | 0.162 | 0.132 | 0.81 | 0.727 | 0.915 | 0.601 | 1.12 | 1.19 | 1.23 | 0.554 | 0.357 | 1.23 | 1.34 | 1.09 | 1.25 | 0.887 |
| NCI-H1975 | 0.516 | 0.352 | 0.249 | 0.122 | 0.115 | 0.922 | 0.928 | 0.899 | 0.838 | 0.791 | 0.755 | 0.692 | 0.302 | 0.27 | 0.993 | 1.15 | 0.929 | 1.07 | 0.418 |
| NCI-H1993 | 0.615 | 0.605 | 0.519 | 0.542 | 0.487 | 0.839 | 0.958 | 0.841 | 0.636 | 0.642 | 0.832 | 0.673 | 0.65 | 0.661 | 0.821 | 0.856 | 0.805 | 0.899 | 0.789 |
